Where two headings read alike, the source gives them in different places.
Experiments:
[1] = tested on: cos 7 (monkey kidney-derived) cells; experiment: MTT-based toxicology assay; assay type: cell-based; details: 1 mg/mL, two hours; preliminary results
Method: Toxicity testing was performed on the example complexes 1-5 as well as the corresponding ligands against cos 7 eukaryotic cells. Cytotoxicity was assessed using the MTT-based toxicology assay (Sigma-Aldrich; TOX1 assay kit) according to the manufacturer's instructions. Compounds were added to cultured cos 7 (monkey kidney-derived) cells at 1 mg/mL and 0.5 mg/mL for two hours. The MTT reagent was then added and cells were incubated at 37° C. for a further two hours. Following incubation, MTT solubilisation solution was added and mixed. Absorbance results were measured on a Tecan plate reader at 690 nm (background reading) and again at 570 nm. Results were calculated after subtracting the background reading (690 nm) from the values obtained at 570 nm. Cell viability was expressed as a normalised percentage against the blank (medium-only) negative controls. All assays were performed in duplicate.

E. coli = experiment: Test 1: colony count after incubation in Lysogeny broth culture; assay type: cell-based; details: for Colony E. coli: Table 1a, 10 mg in 5 mL culture, 2 hours at 37° C., Blank 8.00E+08 (examples), 6.40E+08 (second Blank); for inhibition of growth at 2000 µg/mL: Escherichia coli, 2 h, read-out: Reduction in bacterial growth (%) E. coli
Method: (§1) Bacteria were grown in […] Lysogeny broth (LB), shaking at 37° C. to an optical density (OD) of 0.6 (2-3 hr). The culture was divided in […]. One of the cultures was used as a control, containing no organobismuth(III) phosphinate complex. To the other culture, 10 mg of the appropriate organobismuth (III) phosphinate complex was added. The control and organobismuth(III) phosphinate complex-containing cultures were then incubated for 2 hours at 37° C. with shaking. An aliquot was removed from each culture, serially diluted and 50 uL spread on lysogeny broth plates (˜1 in 10^7 gives countable colony numbers for the wild type controls). The plates were incubated overnight at 37° C. The colonies were counted and multiplied by the dilution factor to determine the colony-forming unit (cfu)/ml of the original culture.
(§2) The experiments were also repeated in a lower concentration (0.5 mg/mL) in accordance with the procedure above, which is also shown in Table 2.

S. aureus = experiment: as above; assay type: cell-based; details: for Colony S. aureus: Table 1a, 10 mg in 5 mL culture, 2 hours at 37° C., Blank 8.00E+08 (examples), 4.00E+08 (second Blank); for inhibition of growth at 2000 µg/mL: Staphylococcus aureus, 2 h, read-out: Reduction in bacterial growth (%) S. aureus
Method: as §1, §2

MRSA = experiment: Test 3: complex incorporated in agar, colony growth; assay type: cell-based, Staphylococcus aureus; details: 1 mg in agar (20 mL)
Method: (§3) The organobismuth (III) phosphinate complex (10 mg or 1 mg) was spread at the bottom of a petri dish. 20 mL of agar was poured on top, before allowing to dry and being stored in a cool dry place. MRSA and VRE were grown in 40 mL BHI with shaking at 37° C. to an OD (optical density) of 0.6 (2-3 hr). The bacteria were then grown for a further 2 hours at 37° C. The bacteria were then plated (at no dilution, 10^3-fold dilution, and 10^4-fold dilution on agar plates containing organobismuth (III) phosphinate and control plates containing no organobismuth (III) phosphinate. The plates were incubated overnight at 37° C. The colonies were counted and multiplied by the dilution factor to determine the colony-forming unit (cfu)/ml of the original culture.

VRE = experiment: as above; assay type: cell-based, Enterococcus; details: 1 mg in agar (20 mL)
Method: as §3

[2] = 0.5 mg/mL, normalised against the Blank sample
[3] = 2 mg/mL, normalised against the Blank sample

O=P([O][Bi]([O]P(=O)(c1ccccc1)c1ccccc1)[c]1ccccc1)(c1ccccc1)c1ccccc1 [Example 1, Phenyl bismuth bis(diphenylphosphinate)]
toxicity (in words) [1]: relatively non-toxic

COc1ccc(P(=O)([O][Bi]([O]P(=O)(c2ccc(OC)cc2)c2ccc(OC)cc2)[c]2ccccc2)c2ccc(OC)cc2)cc1 [Example 2, Phenyl bismuth bis(bis(4-methoxyphenyl)phosphinate)]
Reduction in bacterial growth (%) E. coli (E. coli; [2]): 100.00% | Reduction in bacterial growth (%) E. coli (E. coli; [3]): 100.00% | Colony E. coli (E. coli): 1.50E+01 cfu/ml | Reduction in bacterial growth (%) S. aureus (S. aureus; [2]): 40.00% | Reduction in bacterial growth (%) S. aureus (S. aureus; [3]): 100.00% | Colony S. aureus (S. aureus): 0.00E+00 cfu/ml

O=[N+]([O-])c1cccc(P(=O)([O][Bi]([O]P(=O)(c2cccc([N+](=O)[O-])c2)c2cccc([N+](=O)[O-])c2)[c]2ccccc2)c2cccc([N+](=O)[O-])c2)c1 [Example 3, Phenyl bismuth bis(bis(3-nitrophenyl)phosphinate)]
Reduction in bacterial growth (%) E. coli (E. coli; [2]): 97.00% | Reduction in bacterial growth (%) E. coli (E. coli; [3]): 100.00% | Colony E. coli (E. coli): 0.00E+00 cfu/ml | Reduction in bacterial growth (%) S. aureus (S. aureus; [2]): 90.00% | Reduction in bacterial growth (%) S. aureus (S. aureus; [3]): 100.00% | Colony S. aureus (S. aureus): 0.00E+00 cfu/ml | bacterial growth on treated agar (in words) (MRSA): no bacterial growth was observed | bacterial growth on treated agar (in words) (VRE): no bacterial growth was observed

O=[PH]([O][Bi]([O][PH](=O)c1ccccc1)[c]1ccccc1)c1ccccc1 (stereo not drawn) [Example 4, Phenyl bismuth bis(phenylphosphinate)]
toxicity (in words) [1]: relatively non-toxic

CP(C)(=O)[O][Bi]([O]P(C)(C)=O)[c]1ccccc1 [Example 5, Phenyl Bismuth bis(dimethylphosphinate)]
toxicity (in words) [1]: relatively non-toxic

O=[N+]([O-])c1cccc(P(=O)(O)c2cccc([N+](=O)[O-])c2)c1 [bis(3-nitrophenyl)phosphinic acid, Bis(3-nitrophenyl)phosphinic acid]
inhibition of growth at 2000 µg/mL (E. coli; [3]): 90% | Colony E. coli (E. coli): 8.00E+07 cfu/ml | inhibition of growth at 2000 µg/mL (S. aureus; [3]): 0% | Colony S. aureus (S. aureus): 8.00E+08 cfu/ml

COc1ccc(P(=O)(O)c2ccc(OC)cc2)cc1 [bis(4-methoxyphenyl)phosphinic acid]
inhibition of growth at 2000 µg/mL (E. coli; [3]): 90% | Colony E. coli (E. coli): 8.00E+07 cfu/ml | inhibition of growth at 2000 µg/mL (S. aureus; [3]): 25% | Colony S. aureus (S. aureus): 6.00E+08 cfu/ml

CP(C)(=O)O [dimethyl phosphinic acid]
inhibition of growth at 2000 µg/mL (E. coli): 78.8% | Colony E. coli (E. coli): 1.70E+08 cfu/ml | inhibition of growth at 2000 µg/mL (S. aureus): 25% | Colony S. aureus (S. aureus): 6.00E+08 cfu/ml

O=P(O)(c1ccccc1)c1ccccc1 [diphenylphosphinic acid]
inhibition of growth at 2000 µg/mL (E. coli; [3]): 70% | Colony E. coli (E. coli): 2.40E+08 cfu/ml | inhibition of growth at 2000 µg/mL (S. aureus; [3]): 0% | Colony S. aureus (S. aureus): 8.00E+08 cfu/ml

O=[PH](O)c1ccccc1 [phenylphosphinic acid]
inhibition of growth at 2000 µg/mL (E. coli): 60% | Colony E. coli (E. coli): 3.20E+08 cfu/ml | inhibition of growth at 2000 µg/mL (S. aureus): 0% | Colony S. aureus (S. aureus): 8.00E+08 cfu/ml

c1cc[c]([Bi]([c]2ccccc2)[c]2ccccc2)cc1 [triphenylbismuth]
bacterial growth on treated agar (in words) (MRSA): grew to a comparable number as the blank | bacterial growth on treated agar (in words) (VRE): grew to a comparable number as the blank

Reference: patent US10501487B2, “Antibacterial bismuth complexes” (priority 2015, dated 2019)
